Legend:
E. coli Ecoli233 (KPC3) = assay: Synergistic broth micro-dilution MIC; format: cell-based, Escherichia coli
[1] = test system: K. pneumoniae 700603 (SHV-18); assay: MIC of Piperacillin with inhibitor, ESBL isolates; format: cell-based, Klebsiella pneumoniae
E. coli BAA-198 (TEM-26) = assay: MIC of Piperacillin with inhibitor, ESBL isolates; format: cell-based, Escherichia coli
E. coli BAA-200 (SHV-4) = assay: MIC of Piperacillin with inhibitor, ESBL isolates; format: cell-based, Escherichia coli
[2] = test system: KPC-2 producing K. pneumoniae (ATCC BAA-1705); assay: Synergistic broth micro-dilution MIC (checkerboard); format: cell-based, Klebsiella pneumoniae; conditions: ATCC BAA-1705
[3] = molecular target: T1, crude KPC-2 enzyme extract (Klebsiella pneumoniae, UniProt Q9F663); assay: β-Lactamase inhibitory assay with CENTA substrate; format: biochemical
T1 construct: enzyme extracts from KPC-2 producing and KPC-3 expressing bacterial gram negative strains were used; endogenous in cells; host or cells: KPC-2 producing gram-negative strain
T1 sequence (Q9F663 25-293 limits assumed): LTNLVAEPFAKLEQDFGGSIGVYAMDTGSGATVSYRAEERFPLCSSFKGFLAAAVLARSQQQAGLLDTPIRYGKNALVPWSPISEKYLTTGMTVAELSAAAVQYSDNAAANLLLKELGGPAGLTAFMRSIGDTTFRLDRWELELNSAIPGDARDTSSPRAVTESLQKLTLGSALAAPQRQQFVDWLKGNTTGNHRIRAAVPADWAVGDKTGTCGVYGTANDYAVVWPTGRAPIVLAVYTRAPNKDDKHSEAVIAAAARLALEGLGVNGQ
Excerpt: (§1) The Compound-1 was subjected to β-lactamase inhibitory assay to determine IC50 and to compare that with the comparator BLI agents as described elsewhere (Bebrone et. al., Antimicrob. Agents. Chemother, 2001, 45(6): 1868-1871; Jamieson et. al, Antimicrob. Agents. Chemother, 2003, 47(5): 1652-1657). Briefly, enzyme extracts from KPC-2 producing and KPC-3 expressing bacterial gram negative strains were used to study the β-lactamase inhibitory activity and determination of IC50 using CENTA as the substrate for β-lactamase.

[4] = molecular target: crude KPC-3 enzyme extract (UniProt Q9F663, H272Y, species not given); assay: β-Lactamase inhibitory assay with CENTA substrate; format: biochemical; conditions: also headed KPC2
Excerpt: as §1

E. coli BAA-199 (SHV-3) = assay: MIC of Piperacillin with inhibitor, ESBL isolates; format: cell-based, Escherichia coli

C[C@]1(Cn2ccnn2)[C@H](C(=O)O)N2C(=O)C[C@H]2S1(=O)=O [Tazobactam]
64 µg/mL: MIC of Cefepime in combination with BLI ([2]; BLI at 2 μg/mL) | MIC of Cefepime in combination with BLI ([2]; BLI at 4 μg/mL) | MIC of Cefquinome in combination with BLI ([2]; BLI at 8 μg/mL) | MIC of Cefquinome in combination with BLI ([2]; BLI at 16 μg/mL) | MIC of Ertapenem in combination with BLI ([2]; BLI at 16 μg/mL) | MIC of Cefquinome in combination with BLI ([2]; BLI at 32 μg/mL) | MIC of Ceftiofur in combination with BLI ([2]; BLI at 32 μg/mL) | MIC of Cefquinome in combination with BLI ([2]; BLI at 64 μg/mL) | MIC of Ceftazidime in combination with BLI ([2]; BLI at 64 μg/mL) | MIC of Ceftiofur in combination with BLI ([2]; BLI at 64 μg/mL)
8 µg/mL: MIC of Imipenem in combination with BLI (E. coli Ecoli233 (KPC3); BLI at 4 μg/mL) | MIC of Imipenem in combination with BLI (E. coli Ecoli233 (KPC3); BLI at 16 μg/mL) | MIC of Imipenem in combination with BLI ([2]; BLI at 16 μg/mL)
32 µg/mL: MIC of Meropenem in combination with BLI ([2]; BLI at 2 μg/mL) | MIC of Meropenem in combination with BLI ([2]; BLI at 4 μg/mL) | MIC of Cefepime in combination with BLI ([2]; BLI at 8 μg/mL) | MIC of Cefotaxime in combination with BLI ([2]; BLI at 8 μg/mL) | MIC of Cefepime in combination with BLI ([2]; BLI at 16 μg/mL) | MIC of Cefotaxime in combination with BLI ([2]; BLI at 16 μg/mL) | MIC of Cefepime in combination with BLI ([2]; BLI at 64 μg/mL) | MIC of Cefotaxime in combination with BLI ([2]; BLI at 64 μg/mL) | MIC of Ertapenem in combination with BLI ([2]; BLI at 64 μg/mL)
>128 µg/mL: MIC of Piperacillin with inhibitor (E. coli BAA-200 (SHV-4); inhibitor at 1 μg/mL) | MIC of Piperacillin with inhibitor (E. coli BAA-200 (SHV-4); inhibitor at 2 μg/mL) | MIC of Piperacillin with inhibitor (E. coli BAA-199 (SHV-3); inhibitor at 1 μg/mL) | MIC of Piperacillin with inhibitor (E. coli BAA-199 (SHV-3); inhibitor at 2 μg/mL) | MIC of Piperacillin with inhibitor (E. coli BAA-199 (SHV-3); inhibitor at 4 μg/mL)
4 µg/mL: MIC of Piperacillin with inhibitor (E. coli BAA-198 (TEM-26); inhibitor at 1 μg/mL) | MIC of Piperacillin with inhibitor (E. coli BAA-198 (TEM-26); inhibitor at 2 μg/mL) | MIC of Piperacillin with inhibitor (E. coli BAA-198 (TEM-26); inhibitor at 4 μg/mL) | MIC of Piperacillin with inhibitor (E. coli BAA-200 (SHV-4); inhibitor at 4 μg/mL) | MIC of Meropenem in combination with BLI ([2]; BLI at 64 μg/mL)
≥64 µg/mL: MIC of Cefotaxime in combination with BLI ([2]; BLI at 2 μg/mL)
4 to 8 µg/mL: MIC of Imipenem in combination with BLI ([2]; BLI at 64 μg/mL)
8 to 16 µg/mL: MIC of Imipenem in combination with BLI ([2]; BLI at 8 μg/mL) | MIC of Meropenem in combination with BLI ([2]; BLI at 16 μg/mL)
16 µg/mL: MIC of Piperacillin with inhibitor ([1]; inhibitor at 1 μg/mL) | MIC of Piperacillin with inhibitor ([1]; inhibitor at 2 μg/mL) | MIC of Piperacillin with inhibitor ([1]; inhibitor at 4 μg/mL) | MIC of Imipenem in combination with BLI ([2]; BLI at 2 μg/mL) | MIC of Imipenem in combination with BLI ([2]; BLI at 4 μg/mL)
71 µM: IC50 [4]
16 to 32 µg/mL: MIC of Meropenem in combination with BLI ([2]; BLI at 8 μg/mL)
980 µM: IC50 [3]
>64 µg/mL: MIC of Cefquinome in combination with BLI ([2]; BLI at 1 μg/mL) | MIC of Ceftiofur in combination with BLI ([2]; BLI at 1 μg/mL) | MIC of Cefquinome in combination with BLI ([2]; BLI at 2 μg/mL) | MIC of Ceftazidime in combination with BLI ([2]; BLI at 2 μg/mL) | MIC of Ceftiofur in combination with BLI ([2]; BLI at 2 μg/mL) | MIC of Ceftobiprole in combination with BLI ([2]; BLI at 2 μg/mL) | MIC of Aztreonam in combination with BLI ([2]; BLI at 4 μg/mL) | MIC of Cefadroxil in combination with BLI ([2]; BLI at 4 μg/mL) | MIC of Cefalonium in combination with BLI ([2]; BLI at 4 μg/mL) | MIC of Cefquinome in combination with BLI ([2]; BLI at 4 μg/mL) | MIC of Ceftazidime in combination with BLI ([2]; BLI at 4 μg/mL) | MIC of Ceftiofur in combination with BLI ([2]; BLI at 4 μg/mL) | MIC of Ceftobiprole in combination with BLI ([2]; BLI at 4 μg/mL) | MIC of Ertapenem in combination with BLI ([2]; BLI at 4 μg/mL) | MIC of Faropenem in combination with BLI ([2]; BLI at 4 μg/mL) | MIC of Ceftazidime in combination with BLI ([2]; BLI at 8 μg/mL) | MIC of Ceftiofur in combination with BLI ([2]; BLI at 8 μg/mL) | MIC of Ceftobiprole in combination with BLI ([2]; BLI at 8 μg/mL) | MIC of Ertapenem in combination with BLI ([2]; BLI at 8 μg/mL) | MIC of Faropenem in combination with BLI ([2]; BLI at 8 μg/mL) | MIC of Aztreonam in combination with BLI ([2]; BLI at 16 μg/mL) | MIC of Cefadroxil in combination with BLI ([2]; BLI at 16 μg/mL) | MIC of Cefalonium in combination with BLI ([2]; BLI at 16 μg/mL) | MIC of Ceftazidime in combination with BLI ([2]; BLI at 16 μg/mL) | MIC of Ceftiofur in combination with BLI ([2]; BLI at 16 μg/mL) | MIC of Ceftobiprole in combination with BLI ([2]; BLI at 16 μg/mL) | MIC of Faropenem in combination with BLI ([2]; BLI at 16 μg/mL) | MIC of Aztreonam in combination with BLI ([2]; BLI at 64 μg/mL) | MIC of Cefadroxil in combination with BLI ([2]; BLI at 64 μg/mL) | MIC of Cefalonium in combination with BLI ([2]; BLI at 64 μg/mL) | MIC of Ceftobiprole in combination with BLI ([2]; BLI at 64 μg/mL) | MIC of Faropenem in combination with BLI ([2]; BLI at 64 μg/mL)
32 to 64 µg/mL: MIC of Cefotaxime in combination with BLI ([2]; BLI at 4 μg/mL)

Source: patent US10201532B2, “Compounds and their use” (ALLECRA THERAPEUTICS GMBH, priority 2010, dated 2019)
